Experimental data from patent publication US9545386B2, “Methods of treating infectious diseases” (SLIPPERY ROCK UNIVERSITY FOUNDATION, INC., priority 2007, dated 2017).
Values after ≈ are worked out from the molar mass of the structure shown.

How the values were obtained:
Assay type in all cases: cell-based
[1] = system: Haemonchus contortus infective larvae; test: In vitro bioassay of infective larvae, immobilization and lethal doses (eosin, Probit); details: for 24 hr ID50 ± 95% confidence intervals / 48 hr ID50 ± 95% confidence intervals: immobilize 50%; for 24 hr ID50 ± 95% confidence intervals / 24 hr ID90 ± 95% confidence intervals / 24 hr LD50 ± 95% confidence intervals / 24 hr LD90 ± 95% confidence intervals: 24 hr in vitro; for 48 hr ID50 ± 95% confidence intervals / 48 hr ID90 ± 95% confidence intervals / 48 hr LD50 ± 95% confidence intervals / 48 hr LD90 ± 95% confidence intervals: 48 hr in vitro; for 24 hr ID90 ± 95% confidence intervals / 48 hr ID90 ± 95% confidence intervals: immobilize 90%; for 24 hr LD50 ± 95% confidence intervals / 48 hr LD50 ± 95% confidence intervals: kill 50%; for 24 hr LD90 ± 95% confidence intervals / 48 hr LD90 ± 95% confidence intervals: kill 90%
Protocol: Strongyloides stercoralis infective larvae were harvested from charcoal coprocultures in nematode saline solution. The larvae were supplied by the Parasitology Laboratory, Department of Pathobiology, University of Pennsylvania. The strain of larvae was a human strain of the parasitic nematode that had been maintained for over ten years in canines by daily prednisolone treatment (2 mg/kg per os, once daily. Parastrongyloides trichosuri and Ancylostoma caninum infective larvae were also supplied by the same source as for S. stercoralis. Haemonchus contortus infective larvae were harvested from charcoal coprocultures in nematode saline solution prepared from infected sheep feces obtained from Merck Parasites Laboratory.
The 24 hr 50% and 90% immobilization doses (ID50 and ID90), and 50% and 90% lethal doses (LD50 and LD90) of eryngial (mg/ml) were investigated in vitro using infective larvae of all four parasitic nematodes. Each species was exposed to a range of eryngial dilutions by adding known volumes of a homogeneous ‘wormy’ solution (infective larvae in nematode saline solution) to known volumes of an eryngial stock suspension (10 mg/ml of nematode saline solution). Each dilution, including the control (0 mg/ml eryngial), was prepared in triplicate and also contained eosin (0.01%, w/v), which was used as an indicator of mortality, and Triton X-100 (1.0%, v/v).
Using S. stercoralis, P. trichosuri, H. contortus and A. caninum infective larvae, eryngial dilutions, excluding the controls, ranged from 0.05 to 1.15 mg/ml; 0.01 to 1.0 mg/ml; 0.5 to 2.0 mg/ml; and 0.8 to 3.0 mg/ml, respectively. Sub-sample (10 μl) counts of larvae that were mobile, immobile but not stained and stained, were done at the start of each bioassay and at 24 hr intervals for two days. Each sub-sample contained approximately 50 infective larvae.
The 48-hr immobilization doses (ID50 and ID90) and lethal doses (LD50 and LD90) of eryngial and ivermectin also were investigated, using S. stercoralis and H. contortus infective larvae. Each bioassay was conducted as described hereinabove. Using S. stercoralis and H. contortus infective larvae, ivermectin dilutions (not including the controls) ranged from 0.03 to 0.3 mg/ml and from 0.009 to 0.1 mg/ml, respectively.
Probit analysis was used to determine 24 hr and 48 hr immobilization and lethal doses for eryngial and ivermectin, respectively.

Streptococcus pyogenes = test: Antibacterial MIC/MBC, 96 well broth dilution; details: S. pyogenes, 24 hr in vitro, DMSO as solvent
Protocol: (§1) Bacterial cultures were obtained from the American Type Culture Collection (ATCC), except for Streptococcus pyogenes, which was started from a Difco Bactrol disc. The other organisms were Enterococcus faecalis, Staphylococcus aureus, Escherichia coli, Salmonella typhimurium and Pseudomonas aeruginosa. Cultures were grown in Luria-Bertani (LB) broth. Fungi were obtained from Carolina Biological Supply Company (Aspergillus niger, Candida albicans and Cryptococcus neoformans); Presque Isle Cultures, Erie Pa. (Microsporum gypseum); or from ATCC (Penicillium marneffei). Fungal cultures were maintained in Sabouraud dextrose broth (SDB) or agar (SDA). All media components came from Difco.
(§2) Tests were done in flat-bottomed 96 well cell culture plates (Costar). All samples were done in duplicate. Eryngial was suspended in culture medium plus 0.04% Triton-X to make a 2% (20 mg/ml) suspension, which was passed through a 0.22 μm filter to make a uniform emulsion. Serial doubling dilutions of eryngial in culture medium plus 0.04% Triton-X were prepared, and 75 μl was added to each well. 75 μl of cell or spore suspensions in culture medium also were added to each well. The final concentration of Triton-X was 0.02%, and the final concentration of eryngial was 1% (10 mg/ml) at the highest concentration tested.
(§3) Dimethyl sulfoxide (DMSO) also was used as a solvent for eryngial. A solution of 12.5% eryngial in DMSO was the initial solution. Doubling dilutions were carried out in DMSO. The DMSO-eryngial solutions were diluted 100-fold into growth medium, resulting in a final concentration of 1% DMSO, and 0.125% (1,250 μg/ml) eryngial as the highest concentration tested.
(§4) Overnight bacterial cultures in LB medium were diluted into fresh LB to an OD600 of 0.02 to 0.03, and then diluted 1000-fold again in LB. […] Blank wells for each concentration of eryngial were prepared with plain culture medium added.
(§5) The 96 well plates were incubated at 37° for 24 hr (in a candle jar for S. pyogenes), and the OD630 was read on an EL800 universal microplate reader (Bio-Tek Instruments). Readings from duplicate wells were averaged, and readings from duplicate blank wells for each concentration of eryngial were subtracted to generate the final values. The minimum inhibitory concentration (MIC, μg/ml) was defined as the well with the highest dilution of eryngial in which no growth was observed.
(§6) To determine whether eryngial was merely inhibiting growth of the bacteria and fungi, or whether it also was having a killing effect, the minimum bactericidal concentrations (MBC, μg/ml) or minimum fungicidal concentrations (MFC, μg/ml) were determined. This was done by removing a 50 μl sample from a well after 24 hr (bacteria) or 96 hr (fungi) and diluting the samples in 5 ml of fresh culture medium. These tubes then were incubated at the appropriate temperature for 24-96 hr and observed for any signs of growth.

Enterococcus faecalis = test: Antibacterial MIC/MBC, 96 well broth dilution; details: E. faecalis, 24 hr in vitro, 0.02% Triton X-100
Protocol: as §1, §2, §3, §4, §5, §6

Staphylococcus aureus = test: Antibacterial MIC/MBC, 96 well broth dilution; details: S. aureus, 24 hr in vitro, 0.02% Triton X-100
Protocol: as §1, §2, §3, §4, §5, §6

[2] = H. contortus infective larvae, 48 hr, eryngial vs ivermectin
[3] = H. contortus infective larvae, listed as eryngial

CCCCCCCCC/C=C/C=O [Eryngial, trans-2-dodecenal]
increase in the dose required to immobilize 50% ([1]; 24 hr ID50, H. contortus relative to P. trichosuri): 10.2 fold
times more effective than ivermectin at eliciting 90% mortality [1, 2]: 2.9 times
times more potent at killing 50% than ivermectin [1, 2]: 3.7 times
24 hr ID50 ± 95% confidence intervals ([1]; H. contortus infective larvae): 0.132 (0.078-0.186) mg/ml
24 hr ID50 ± 95% confidence intervals [1, 3]: 0.132 mg/mL
48 hr ID50 ± 95% confidence intervals ([1]; H. contortus infective larvae): 0.313 (0.143-0.453) mg/ml
48 hr ID50 ± 95% confidence intervals [1, 3]: 0.313 mg/mL
24 hr ID90 ± 95% confidence intervals ([1]; H. contortus infective larvae): 0.782 (0.641-0.998) mg/ml
24 hr ID90 ± 95% confidence intervals [1, 3]: 0.782 mg/mL
48 hr ID90 ± 95% confidence intervals ([1]; H. contortus infective larvae): 0.761 (0.530-1.488) mg/ml
48 hr ID90 ± 95% confidence intervals [1, 3]: 0.761 mg/mL
24 hr LD50 ± 95% confidence intervals ([1]; H. contortus infective larvae): 1.793 (1.516-2.558) mg/ml
24 hr LD50 ± 95% confidence intervals [1, 3]: 1.793 mg/mL
48 hr LD50 ± 95% confidence intervals ([1]; H. contortus infective larvae): 1.361 (1.284-1.449) mg/ml
48 hr LD50 ± 95% confidence intervals [1, 3]: 1.361 mg/mL
24 hr LD90 ± 95% confidence intervals ([1]; H. contortus infective larvae): 2.765 (2.010-5.915) mg/ml
24 hr LD90 ± 95% confidence intervals [1, 3]: 2.765 mg/mL
48 hr LD90 ± 95% confidence intervals ([1]; H. contortus infective larvae): 2.360 (2.109-2.768) mg/ml
48 hr LD90 ± 95% confidence intervals [1, 3]: 2.360 mg/mL
MBC (Streptococcus pyogenes): 156 mg/L (≈ 856 µM)
MIC (Streptococcus pyogenes): 156 mg/L (≈ 856 µM)
MBC (Enterococcus faecalis): 313 mg/L (≈ 1720 µM)
MIC (Enterococcus faecalis): 313 mg/L (≈ 1720 µM)
MBC (Staphylococcus aureus): 78 mg/L (≈ 428 µM)
MIC (Staphylococcus aureus): 78 mg/L (≈ 428 µM)
